Counter-ions that a name gives are not always drawn.
Target: T1, Recombinant human CDK9/cyclin T1 (Homo sapiens, UniProt P50750)
T1 construct: purchased Carna bioscience 04-110
Experiment: CDK9 enzyme inhibitory activity (ADP-Glo kinase assay)
Assay type: biochemical
Conditions: CDK9 enzyme activity, average of two independent repeats; for inhibition at 0.01 µM: compound 10 nM, read-out: Inhibition rate at different concentrations (%) 10 nM; for inhibition at 0.1 µM: compound 100 nM, read-out: Inhibition rate at different concentrations (%) 100 nM
Procedure: Experimental method: Recombinant human CDK9/cyclin T1 (Carna bioscience, Cat #04-110) was diluted with dilution buffer (20 mM Tris HCl (pH 7.5), 0.02% Triton X-100, 0.01% BSA, 2 mM DTT, 0.5 mM Na3VO4, 10% Glycerol) to […], the substrates CDK7/9 tide (ThermoFisher, Cat #PV5090) and ATP (sigmaaldrich, Cat #A1852) were diluted with assay buffer (25 mM Tris HCl (pH7.5), 10 mM MgCl2, 0.5 mM EGTA (pH 8), 0.5 mM Na3VO4, 5 mMb-glycerol phosphate, 0.1% Triton X-100, 2.5 mM DTT) to final concentrations of 100 μM and […] respectively, aliquot and set aside. 2 μl of diluted recombinant human CDK9/cyclin T1, 1 μl of test compound, and 2 μl of diluted substrate CDK7/9 tide containing ATP were added to the 384-well plate. […] The positive control was the well in which enzyme and substrate were co-incubated, and the negative control was the well in which dilution buffer and substrate were co-incubated. The inhibition rate was calculated according to the following formula.

T1 sequence (P50750 whole entry): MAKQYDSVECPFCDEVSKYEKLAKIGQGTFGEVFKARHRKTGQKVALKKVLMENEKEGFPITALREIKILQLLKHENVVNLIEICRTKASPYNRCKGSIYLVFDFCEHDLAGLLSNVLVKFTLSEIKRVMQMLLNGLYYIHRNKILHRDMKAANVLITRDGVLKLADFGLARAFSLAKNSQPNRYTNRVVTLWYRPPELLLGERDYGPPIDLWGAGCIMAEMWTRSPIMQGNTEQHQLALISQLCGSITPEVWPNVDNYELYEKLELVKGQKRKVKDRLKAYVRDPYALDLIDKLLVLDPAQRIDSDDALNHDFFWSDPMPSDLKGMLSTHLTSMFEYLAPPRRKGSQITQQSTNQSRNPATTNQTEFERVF
T1 sequence (O60563 whole entry partner): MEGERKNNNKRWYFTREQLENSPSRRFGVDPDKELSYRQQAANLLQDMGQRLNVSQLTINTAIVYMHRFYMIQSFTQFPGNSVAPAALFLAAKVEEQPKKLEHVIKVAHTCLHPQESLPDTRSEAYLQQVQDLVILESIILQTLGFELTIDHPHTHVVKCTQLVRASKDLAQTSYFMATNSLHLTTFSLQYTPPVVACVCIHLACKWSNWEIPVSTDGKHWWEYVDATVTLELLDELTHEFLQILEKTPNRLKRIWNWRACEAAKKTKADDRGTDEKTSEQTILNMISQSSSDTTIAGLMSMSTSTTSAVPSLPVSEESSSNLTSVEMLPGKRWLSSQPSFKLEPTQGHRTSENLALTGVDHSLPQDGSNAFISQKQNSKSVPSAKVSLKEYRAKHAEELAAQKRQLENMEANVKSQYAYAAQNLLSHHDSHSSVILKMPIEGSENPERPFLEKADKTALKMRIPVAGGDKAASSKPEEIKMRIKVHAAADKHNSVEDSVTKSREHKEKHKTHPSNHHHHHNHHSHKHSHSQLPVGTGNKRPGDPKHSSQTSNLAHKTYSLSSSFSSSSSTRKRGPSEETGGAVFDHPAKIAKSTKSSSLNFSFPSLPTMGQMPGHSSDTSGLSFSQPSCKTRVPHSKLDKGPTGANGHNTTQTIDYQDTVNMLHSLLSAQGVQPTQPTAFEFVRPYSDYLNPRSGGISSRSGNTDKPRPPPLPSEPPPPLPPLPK

Row | inhibition at 0.01 µM | inhibition at 0.1 µM | SMILES
1 | 10% | 60% | COc1cc(F)ccc1-c1ccnc(NC(=O)NC2CCCNCC2)c1 (stereo not shown) [Example 37, 1-(azepan-4-yl)-3-(4-(4-fluoro-2-methoxyphenyl)pyridin-2-yl)urea]
2 | 72% | 62% | CCNC1CCC(NC(=O)Nc2cc(-c3cnn4c3CC(C)(C)C4)c(Cl)cn2)CC1 (stereo not shown) [Example 59, 1-(5-chloro-4-(5,5-dimethyl-5,6-dihydro-4H-pyrrolo[1,2-b]pyrazol-3-yl)pyridin-2-yl)-3-((1r,4r)-4-(ethylamino)cyclohexyl)urea]
3 | 58.9% | 93.7% | CC1(C)Cc2c(-c3cc(NC(=O)NC4CCC(N5CCOCC5)CC4)ncc3Cl)cnn2C1 (stereo not shown) [Example 92, 1-(5-chloro-4-(5,5-dimethyl-5,6-dihydro-4H-pyrrolo[1,2-b]pyrazol-3-yl)pyridin-2-yl)-3-((1r, 4r)-4-morpholinylcyclohexyl)urea]
4 | 28% | 55% | COc1cc(F)ccc1-c1cc(NC(=O)NC2CCC(NC(=O)OC(C)(C)C)CC2)ncn1 (stereo not shown) [Example 39, tert-butyl ((1r,4r)-4-(3-(6-(4-fluoro-2-methoxyphenyl)pyrimidin-4-yl)ureido)cyclohexyl)carbamate]
5 | 40.2% | 68.3% | CC(=O)NC1CCC(NC(=O)Nc2cc(-c3cnn4c3CN(C)CC4)c(Cl)cn2)CC1 (stereo not shown) [Example 83, N-((1r,4r)-4-(3-(5-chloro-4-(5-methyl-4,5,6,7-tetrahydropyrazolo[1,5-a]pyrazin-3-yl)pyridin-2-yl)ureido)cyclohexyl)acetamide]
6 | 37.8% | 73.1% | COc1cc(F)ccc1-c1cc(NC(=O)NC2CCC(NC3CC3)CC2)ncc1Cl (stereo not shown) [Example 24, 1-(5-chloro-4-(4-fluoro-2-methoxyphenyl)pyridin-2-yl)-3-((1r,4r)-4-(cyclopropylamino)cyclohexyl)urea]
7 | 23% | 55.1% | CC(C)c1c2cc(-c3ccnc(NC(=O)NC4CCC(N)CC4)c3)ccc2nn1C (stereo not shown) [Example 9, 1-((1r,4r)-4-aminocyclohexyl)-3-(4-(3-isopropyl-2-methyl-2H-indazol-5-yl)pyridin-2-yl)urea]
8 | 19.4% | 57% | COCCNC1CCC(NC(=O)Nc2cc(-c3ccc(F)cc3OC)c(C)cn2)CC1 (stereo not shown) [Example 29, 1-(4-(4-fluoro-2-methoxyphenyl)-5-methylpyridin-2-yl)-3-((1r,4r)-4-((2-methoxyethyl)amino)cyclohexyl) urea]
9 | 40.2% | 69.3% | CC1(C)Cc2c(-c3cc(NC(=O)NC4CCC(NC5COC5)CC4)ncc3Cl)cnn2C1 (stereo not shown) [Example 63]
10 | 57% | 69% | COCCNC1CCC(NC(=O)Nc2cc(-c3cnn4c3CC(C)(C)C4)c(Cl)cn2)CC1 (stereo not shown) [Example 66, 1-(5-chloro-4-(5,5-dimethyl-5,6-dihydro-4H-pyrrolo[1,2-b]pyrazol-3-yl)pyridin-2-yl)-3-((1s,4s)-4-((2-methoxyethyl)amino)cyclohexyl)urea]
11 | 34.3% | 81.1% | COc1cc(-c2ccnc(NC(=O)NC3CCC(N)CC3)c2)c(F)cc1F (stereo not shown) [Example 7, 1-((1r,4r)-4-aminocyclohexyl)-3-(4-(2,4-difluoro-5-methoxyphenyl)pyridine-2-yl)urea]
12 | 57.1% | 87.4% | COCCNC1CCC(NC(=O)Nc2cc(-c3ccc(F)cc3OC)c(Cl)cn2)CC1 (stereo not shown) [Example 19, 1-(5-chloro-4-(4-fluoro-2-methoxyphenyl)pyridin-2-yl)-3-((1r,4r)-4-((2-methoxyethyl)amino)cyclohexyl)urea]
13 | 63% | 88% | COCC[N+](C)(C)C1CCC(NC(=O)Nc2cc(-c3cnn4c3CC(C)(C)C4)c(Cl)cn2)CC1 (stereo not shown) [Example 91, (1r,4r)-4-(3-(5-chloro-4-(5,5-dimethyl-5,6-dihydro-4H-pyrrolo[1,2-b]pyrazol-3-yl)pyridin-2-yl)ureido)-N-(2-methoxyethyl)-N,N-dimethylcyclohexyl-1-ammonium salt]
14 | 30% | 62.7% | COc1cc(F)ccc1-c1ccnc(NC(=O)NC2CC(N)C2)c1 (stereo not shown) [Example 35, 1-((1r,3r)-3-aminocyclobutyl)-3-(4-(4-fluoro-2-methoxyphenyl)pyridin-2-yl)urea]
15 | -7.6% | 72.3% | COCCNC1CCC(NC(=O)Nc2cc(-c3cnn(C)c3)ccn2)CC1 (stereo not shown) [Example 14, 1-((1r,4r)-4-((2-methoxyethyl)amino)cyclohexyl)-3-(4-(1-methyl-1H-pyrazol-4-yl)pyridine-2-yl) urea]
16 | 40.3% | 59.8% | CC(=O)NC1CCC(NC(=O)Nc2cc(-c3cnn4c3CC(C)(C)C4)c(C3CC3)cn2)CC1 (stereo not shown) [Example 53, N-((1r,4r)-4-(3-(4-(5,5-dimethyl-5,6-dihydro-4H-pyrrolo[1,2-b]pyrazol-3-yl)-5-cyclopropylpyridin-2-yl)ureido)cyclohexyl)acetamide]
17 | 44% | 75% | Cc1c(-c2cc(NC(=O)NC3CCC(N)CC3)ncc2Cl)cnn1C (stereo not shown) [Example 42, 1-((1r,4r)-4-aminocyclohexyl)-3-(5-chloro-4-(1,5-dimethyl-1H-pyrazol-4-yl)pyridin-2-yl)urea]
18 | 44.2% | 78.4% | COc1cc(F)ccc1-c1cc(NC(=O)NC2CCC(NCCN(C)C)CC2)ncc1Cl (stereo not shown) [Example 27, 1-(5-chloro-4-(4-fluoro-2-methoxyphenyl)pyridin-2-yl)-3-((1r,4r)-4-((2-(dimethylamino)ethyl)amino)cyclohexyl)urea]
19 | 68% | 80% | CCNC1CCCC(NC(=O)Nc2cc(-c3cnn4c3CC(C)(C)C4)c(Cl)cn2)C1 (stereo not shown) [Example 78, 1-(5-chloro-4-(5,5-dimethyl-5,6-dihydro-4H-pyrrolo[1,2-b]pyrazol-3-yl)pyridin-2-yl)-3-(3-(ethylamino)cyclohexyl)urea]
20 | 60.3% | 92% | CC1(C)Cc2c(-c3cc(NC(=O)NC4CCCC(N)C4)ncc3Cl)cnn2C1 (stereo not shown) [Example 77, 1-(3-aminocyclohexyl)-3-(5-chloro-4-(5,5-dimethyl-5,6-dihydro-4H-pyrrolo[1,2-b]pyrazol-3-yl)pyridin-2-yl)urea]
21 | 43.8% | 75.3% | CC(=O)NC1CCC(NC(=O)Nc2cc(-n3cnc(C4CC4)c3)c(Cl)cn2)CC1 (stereo not shown) [Example 87, N-((1r,4r)-4-(3-(5-chloro-4-(4-cyclopropyl-1H-imidazol-1-yl)pyridin-2-yl)ureido)cyclohexyl)acetamide]
22 | -12.6% | 94.6% | NC1CCC(NC(=O)Nc2cc(-c3ccc(F)cc3Cl)ccn2)CC1 (stereo not shown) [Example 10, 1-((1r,4r)-4-aminocyclohexyl)-3-(4-(2-chloro-4-fluorophenyl)pyridin-2-yl) urea]
23 | 49% | 87.3% | CC(=O)NC1CCC(NC(=O)Nc2cc(-c3cnn(C)c3C)c(Cl)cn2)CC1 (stereo not shown) [Example 43, N-((1r,4r)-4-(3-(5-chloro-4-(1,5-dimethyl-1H-pyrazol-4-yl)pyridin-2-yl)ureido)cyclohexyl)acetamide]
24 | 38.9% | 88.3% | COc1cc(F)ccc1-c1cc(NC(=O)NC2CCC(NCCO)CC2)ncc1Cl (stereo not shown) [Example 20, 1-(5-chloro-4-(4-fluoro-2-methoxyphenyl)pyridin-2-yl)-3-((1r,4r)-4-((2-hydroxyethyl)amino)cyclohexyl)urea]
25 | 18.1% | 59.8% | COc1cc(F)ccc1-c1cc(NC(=O)NC2CCC(NC(C)=O)CC2)ncc1C#N (stereo not shown) [Example 32, N-((1r,4r)-4-(3-(5-cyano-4-(4-fluoro-2-methoxyphenyl)pyridin-2-yl)ureido)cyclohexyl)acetamide]
26 | 44.9% | 95.2% | CN(C)CCNC1CCC(NC(=O)Nc2cc(-c3cnn4c3CC(C)(C)C4)c(Cl)cn2)CC1 (stereo not shown) [Example 56, 1-(5-chloro-4-(5,5-dimethyl-5,6-dihydro-4H-pyrrolo[1,2-b]pyrazol-3-yl)pyridin-2-yl)-3-((1r,4r)-4-((2-(dimethylamino)ethyl)amino)cyclohexyl)urea]
27 | 70% | 86% | CC1(C)Cc2c(-c3cc(NC(=O)N[C@@H]4CC[C@@H](N)C4)ncc3Cl)cnn2C1 [Example 73, 1-((1S,3S)-3-aminocyclopentyl)-3-(5-chloro-4-(5,5-dimethyl-5,6-dihydro-4H-pyrrole[1,2-b]pyrazole-3-yl)pyridin-2-yl)urea]
28 | 34% | 64% | CC1(C)Cc2c(-c3cc(NC(=O)NCCCNC(=O)OC(C)(C)C)ncc3Cl)cnn2C1 [Example 71, tert-butyl (3-(3-(5-chloro-4-(5,5-dimethyl-5,6-dihydro-4H-pyrrolo[1,2-b]pyrazol-3-)pyridin-2-yl)ureido)propyl)carbamate]
29 | 62.9% | 93.5% | COc1cc(F)ccc1-c1cc(NC(=O)NC2CCC(NC(C)=O)CC2)ncc1Cl (stereo not shown) [Example 22, N-((1r,4r)-4-(3-(5-chloro-4-(4-fluoro-2-methoxyphenyl)pyridin-2-yl)ureido)cyclohexyl)acetamide]

— patent publication US20240351986A1, “UREA COMPOUND CONTAINING 2-HETEROAROMATIC RING SUBSTITUTION, PREPARATION METHOD THEREFOR AND USE THEREOF” (SHANGHAI INSTITUTE OF MATERIA MEDICA, CHINESE ACADEMY OF …, priority 2021, published 2024)
